Measurements from article PMC11858653, “Design, Synthesis and Bioactive Evaluation of Topo I/c-MYC Dual Inhibitors to Inhibit Oral Cancer via Regulating the PI3K/AKT/NF-κB Signaling Pathway” (Molecules, 2025).

Assays:
[1] = test system: MGC-803; test: MTT antiproliferative assay, MGC-803; format: cell-based, human; conditions: mean ± SD
Procedure: (§1) Having evaluated their Topo I inhibitory activity, the antiproliferative activity of the target compounds against some common human cancer cell lines (NCI-H460, A549, ACHN, Cal27 and MGC-803) and one normal cell line (SV-HUC-1) was tested via an MTT assay. TPT, the first Topo I inhibitor approved in clinics, and cisplatin (CDDP), a commonly selected anticancer drug for treating head and neck malignancies, were used as the positive controls.
(§2) Human oral cancer Cal27 cells were seeded in 96-well plates and incubated overnight in 180 μL of medium containing 10% Fetal Bovine Serum (Gibco, San Francisco, CA, USA). […] Then, 10 μL of 5 mg/mL MTT solution was added to each well and incubated at 37 °C for 4 h. After 4 h of incubation at 37 °C, the MTT-containing medium was removed and DMSO was added to each well and the absorbance at 570 nm and 630 nm was measured using a microplate reader (CYTATION 3, Burton, Westwood, NJ, USA). Survival/% = (mean OD of experimental group/mean OD of control group) × 100%. Each test was repeated at least three times.

[2] = test system: ACHN; test: MTT antiproliferative assay, ACHN; format: cell-based, human; conditions: 48 h, mean ± SD
Procedure: as §1, §2

[3] = test system: SV-HUC-1; test: MTT assay, normal cell line SV-HUC-1; format: cell-based; conditions: mean ± SD
Procedure: as §1, §2

[4] = test system: Cal27; test: MTT antiproliferative assay, Cal27; format: cell-based, human; conditions: mean ± SD
Procedure: as §1, §2

[5] = test system: NCI-H460; test: MTT antiproliferative assay, NCI-H460; format: cell-based, human; conditions: mean ± SD
Procedure: as §1, §2

[6] = test system: A549; test: MTT antiproliferative assay, A549; format: cell-based, human; conditions: mean ± SD
Procedure: as §1, §2

[7] = target: T1, Topo I (Homo sapiens, UniProt P11387); test: Topo I inhibitory activity, agarose gel electrophoresis (pBR322); format: biochemical
T1 sequence (P11387 1-765): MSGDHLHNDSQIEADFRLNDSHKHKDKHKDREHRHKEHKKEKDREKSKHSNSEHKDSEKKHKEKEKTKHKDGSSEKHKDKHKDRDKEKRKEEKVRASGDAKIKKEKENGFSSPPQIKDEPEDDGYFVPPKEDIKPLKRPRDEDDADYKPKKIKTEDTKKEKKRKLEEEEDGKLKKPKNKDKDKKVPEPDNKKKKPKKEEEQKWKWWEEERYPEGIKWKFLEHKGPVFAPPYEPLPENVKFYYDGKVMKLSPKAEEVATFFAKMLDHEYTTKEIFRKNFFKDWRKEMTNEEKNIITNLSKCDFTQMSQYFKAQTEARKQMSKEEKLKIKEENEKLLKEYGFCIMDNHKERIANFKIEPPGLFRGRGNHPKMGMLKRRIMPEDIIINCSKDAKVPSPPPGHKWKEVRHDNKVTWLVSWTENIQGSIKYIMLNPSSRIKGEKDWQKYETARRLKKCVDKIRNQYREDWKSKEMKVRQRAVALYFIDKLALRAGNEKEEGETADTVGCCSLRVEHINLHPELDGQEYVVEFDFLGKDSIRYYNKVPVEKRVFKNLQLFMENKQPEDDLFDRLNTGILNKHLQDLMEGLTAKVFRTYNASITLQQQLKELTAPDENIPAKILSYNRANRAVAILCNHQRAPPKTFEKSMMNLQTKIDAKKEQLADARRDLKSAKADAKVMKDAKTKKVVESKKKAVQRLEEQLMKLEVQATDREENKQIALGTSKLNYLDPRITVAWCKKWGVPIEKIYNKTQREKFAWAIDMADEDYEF
Procedure: In this assay, 250 ng of pBR322 plasmid DNA, different concentrations of the compounds to be tested, 0.1% BSA 1 μL, 10× Topo I buffer, Topo I and add 1× TAE buffer were mixed to a final volume of 20 μL. The reaction was carried out for 30 min at 37 °C in a water bath. After the reaction was terminated, 4 μL of each of the 6× DNA Sampling Buffers were added to the gel. The pBR322 plasmid DNA alone was used as a negative control, and camptothecin was used as a positive control. Finally, the samples were loaded onto the gels and electrophoresed for about 1.5 h. After electrophoresis, the gel blocks were incubated in 1 mg/L ethidium bromide (EB) for 30 min and then visualized on the gel system.

SMILES	IC50 ([1]; 48 h)	IC50 [2]	IC50 ([3]; 48 h)	IC50 ([4]; 48 h)	IC50 ([5]; 48 h)	IC50 ([6]; 48 h)	IC50 ([1]; Homo sapiens, MGC-803, 48 h)	IC50 ([2]; Homo sapiens, ACHN)	IC50 ([3]; SV-HUC1, 48 h)	IC50 ([4]; Homo sapiens, CAL-27, 48 h)	IC50 ([5]; Homo sapiens, NCI-H460, 48 h)	IC50 ([6]; Homo sapiens, A549, 48 h)	nicked DNA in the lane (DNA breakage) ([7]; 20 μM)	Topo I inhibitory activity (in words) ([7]; 20 μM)	concentration at which the activity of Topo I was fully inhibited ([7]; different concentrations)
Cc1cc(-c2ccccc2)nc2c1-c1nc(NCCN3CCCCC3)c3ccccc3c1S2(=O)=O [7ce, 7-Methyl-9-phenyl-5-((2-(piperidin-1-yl)ethyl)-amino)pyrido[3′,2′:4,5]thieno[3,2-c]isoquinoline 11,11-dioxide]	94 ± 2.15 µM	> 100 µM	> 100 µM	56.8 ± 2.59 µM	93 ± 8.03 µM	86.5 ± 3.15 µM	–	–	–	–	–	–	–	–	–
CN(C)CCNc1nc2c(c3ccccc13)S(=O)(=O)c1ncccc1-2 [7aa, 5-((2-(Dimethylamino)ethyl)amino)pyrido[3′,2′:4,5] thieno[3,2-c]isoquinoline 11,11-dioxide]	–	–	–	–	–	–	21.6 ± 0.64 µM	20.5 ± 4.82 µM	20.8 ± 3.83 µM	14.4 ± 4.75 µM	59 ± 3.81 µM	> 100 µM	–	–	–
Cc1cc(-c2ccccc2)nc2c1-c1nc(NCCCN(C)C)c3ccccc3c1S2(=O)=O [7cf, 5-((3-(Dimethylamino)propyl)amino)-7-methyl-9-phenylpyrido[3′,2′:4,5]thieno[3,2-c]isoquinoline 11,11-dioxide]	13.3 ± 4.44 µM	16.6 ± 3.08 µM	12.1 ± 3.26 µM	21.5 ± 3.81 µM	12.6 ± 2.23 µM	> 100 µM	–	–	–	–	–	–	nicked DNA could be clearly observed	–	–
O=S1(=O)c2ncccc2-c2nc(NCCN3CCOCC3)c3ccccc3c21 [7ad, 5-((2-Morpholinoethyl)amino)pyrido[3′,2′:4,5]thieno[3,2-c]isoquino-line 11,11-dioxide]	–	–	–	–	–	–	> 100 µM	> 100 µM	> 100 µM	> 100 µM	> 100 µM	> 100 µM	–	–	–
Cc1cc(C)c2c(n1)S(=O)(=O)c1c-2nc(NCCCN2CCCC2)c2ccccc12 [7bh, 7,9-Dimethyl-5-((3-(pyrrolidin-1-yl)propyl)amino)-pyrido[3′,2′:4,5]thieno[3,2-c]isoquinoline 11,11-dioxide]	–	–	–	–	–	–	4.83 ± 0.67 µM	5.9 ± 1.45 µM	3.83 ± 0.14 µM	3.47 ± 0.84 µM	4.79 ± 0.4 µM	4.84 ± 0.74 µM	–	potent Topo I activity	40 µM
O=S1(=O)c2ncccc2-c2nc(N3CCCC3)c3ccccc3c21 [7al, 5-(Pyrrolidin-1-yl)pyrido[3′,2′:4,5]thieno[3,2-c]isoquinoline 11,11-dioxide]	–	–	–	–	–	–	> 100 µM	> 100 µM	> 100 µM	> 100 µM	> 100 µM	> 100 µM	–	–	–
CCN(CC)CCNc1nc2c(c3ccccc13)S(=O)(=O)c1ncccc1-2 [7ab, 5-((2-(Diethylamino)ethyl)amino)pyrido[3′,2′:4,5] thieno[3,2-c]isoquinoline 11,11-dioxide]	–	–	–	–	–	–	47 ± 2.43 µM	> 100 µM	21.6 ± 3.19 µM	23.8 ± 1.08 µM	59.7 ± 9.65 µM	42.6 ± 1.89 µM	–	–	–
Cc1cc(-c2ccccc2)nc2c1-c1nc(NCCCn3ccnc3)c3ccccc3c1S2(=O)=O [7cj, 5-((3-(1H-imidazol-1-yl)propyl)amino)-7-methyl-9-phenylpyrido[3′,2′:4,5]thieno[3,2-c]isoquinoline 11,11-dioxide]	> 100 µM	> 100 µM	> 100 µM	> 100 µM	> 100 µM	> 100 µM	–	–	–	–	–	–	–	–	–
Cc1cc(-c2ccccc2)nc2c1-c1nc(NCCN(C)C)c3ccccc3c1S2(=O)=O [7ca, 5-((2-(Dimethylamino)ethyl)amino)-7-methyl-9-phenylpyrido[3′,2′:4,5]-thieno[3,2-c]isoquinoline 11,11-dioxide]	53.1 ± 3.78 µM	> 100 µM	> 100 µM	> 100 µM	> 100 µM	> 100 µM	–	–	–	–	–	–	–	–	–
